# Results reported in patent publication US10092515B2, “Liposomal formulations of polymyxin B and uses thereof” (University of Houston System, priority 2012, dated 2018).
# Where two headings read alike, the source gives them in different places. Where a SMILES comes first, the peptide text is derived from it. Bridges are numbered along the chain shown (N, C = ends). [ ]: non-standard residue; d: D form. The star is where a group is joined. Heptanoyl(6-Me) = CC(C)CCCCC(=O)*; X1 = CC[C@H](C)CCCCC(=O)*; Octanoyl = CCCCCCCC(=O)*; Dab = NCC[C@H](N)C(=O)O
# Key:
# [1] = Epithelial lining fluid (ELF) pharmacokinetics after intravenous polymyxin B liposomes or aqueous solution (USP); format: in vivo, Swiss Webster mice; details: for AUC(0-t): female, ND4 Swiss Webster, n = 4, read-out: AUC0-6 h, epithelial lining fluid
# Description: (§1) The animal protocol was approved by the University of Houston Institutional Animal Care and Use Committee. The animals received food and water ad libitum. Two groups of 24 female ND4 Swiss Webster mice (20-23 g, Harlan Laboratory, Indianapolis, Ind.) were intravenously administrated PB liposomes and aqueous solution (USP), respectively, at approximately 3 mg/kg through the tail vein. At each time point (0.1, 0.5, 1, 2, 4 and 6 h post-dose), four mice were sacrificed for blood and epithelial lining fluid sample collection. The blood samples were clotted on crushed ice and the serum was obtained by centrifugation. The epithelial lining fluid samples were obtained by bronchoalveolar lavage. All the serum and epithelial lining fluid samples were stored at −80° C. until analysis.
# (§2) Four major polymyxin B components in serum and epithelial lining fluid samples were assayed by a validated UPLC-MS/MS method. An Acquity UPLC HSS C18 column was used with 0.1% formic acid/acetonitrile as mobile phases. Analysis was performed in positive ionization mode with multiple reactions monitoring (MRM) scan type. Briefly, the serum and epithelial lining fluid samples (200 μl) were spiked with 20 μl of carbutamide (internal standard). Two hundred μl of 5% trichloroacetic acid was added to precipitate the proteins, followed by 1 min of vortexing. After centrifugation at 18,000× g for 15 min, the supernatant was transferred to a new tube and evaporated to dryness under a stream of nitrogen. The residue was reconstituted in 100 μl of mobile phase (acetonitrile: 0.1% formic acid=50:50) and then centrifuged at 18,000×g for 15 minutes. Ten μl of supernatant was injected into the UPLC-MS/MS for quantitative analysis. The linear concentration range was 6.5-3200 ng/ml for both serum and epithelial lining fluid samples. The intra-day and inter-day variance was less than […] for all the components in both serum and epithelial lining fluid. The concentration of drug in epithelial lining fluid (CELF) was corrected using the equation: CELF=CBALF× Ureaserum/UreaBALF, where UreaBALF and Ureaserum were the concentrations of urea in bronchoalveolar lavage fluid (BALF) and serum, respectively (18).
# (§3) Concentrations of urea in serum and BALF samples were quantified with a commercially available assay kit (Quantichrom™ Urea Assay kit, BioAssay System, Hayward, Calif.) and measured on a Synergy2 microplate reader (BioTek Instrument, Winooski, Vt.). Drug exposures observed in both serum and epithelial lining fluid were normalized by the specific dose of each batch of liposomes to account for the variances among different pharmacokinetic experiments. Naïve data averaging was used; the best-fit pharmacokinetic parameters as well as drug exposure in serum and ELF were calculated by WinNonlin 3.3 (Pharsight Corporation, Mountain View, Calif.) using a one-compartment model and non-compartmental analysis, respectively. Statistical differences between liposome and aqueous solution were determined by Mann-Whitney test at the significance level of p≤0.05.
# [2] = Serum pharmacokinetics after intravenous polymyxin B liposomes or aqueous solution (USP); format: in vivo, Swiss Webster mice; details: for AUC(0-t): n = 4, normalized by dose, read-out: AUC0-6 h
# Description: as §1, §2, §3
# [3] = Kidney exposure after IV polymyxin liposome or solution (USP); format: in vivo, mice; details: for AUC(0-t) / AUC0-6 h, kidney: female, ND4 Swiss Webster
# [4] = tested on: Lrp2/megalin; assay: Urinary excretion of megalin after maleate administration (ELISA); format: in vivo; details: rats, single 400 mg/kg intraperitoneal dose
# Description: Three rats were housed individually in separate metabolic cages 24 h prior to maleate pretreatment. A single dose of 400 mg/kg of sodium maleate was given intraperitoneally; this was previously reported to induce reversible ultrastructural modifications in the apical brush border membrane of proximal renal tubules (34). To study megalin urinary excretion, cumulative urine was collected daily from day −1 to day 15. The urine samples were spun down to remove particulate matter. Subsequently, the urine samples were aliquoted and stored at −80° C. prior to analysis. The samples were thawed, and urinary Lrp2/megalin concentrations were quantitatively measured using a commercially available ELISA kit for megalin. For each animal, the daily megalin concentrations were expressed as a normalized ratio to the baseline megalin value.
# [5] = tested on: proximal tubules; assay: Electron microscopy of maleate-treated kidney sections; format: in vivo; details: rats
# Description: For morphological studies, one animal was sacrificed at 3 h and another at 14 days after maleate administration to collect the kidneys. The harvested kidneys were submitted for electron microscopic studies. Tissue samples from both renal cortical and medullary regions were fixed in 2% glutaraldehyde at 4° C. overnight, followed by additional fixation in osmium tetroxide. The renal tissue was dehydrated and embedded in epoxy resin. Approximately 1-μm pilot sections were stained with toluidine for selection of the areas for further ultrastructural examination. Thin sections of these selected areas were cut and subjected to examination under a JEOL 300 electron microscope at 80 kV. The kidneys from two naive rats were harvested, processed in a similar fashion, and used as controls.
# [6] = female, ND4 Swiss Webster, mouse, in vivo, iv
# [7] = mouse, in vivo, iv, 3 mg/kg, AUC0-6 h, kidney
Structure (SMILES),"time post-dose up to which the component could be quantified in ELF ([1]; mouse, in vivo, iv)","AUC ratio (liposome:solution), epithelial lining fluid ([1]; mouse, in vivo, iv, 3 mg/kg)","half-life [2, 6] [min]","T1/2 (elimination half-life) ([2]; mouse, in vivo, iv) [min]","AUC0-6 h, kidney ([3]; mouse, in vivo, iv, 3 mg/kg) [µg·h/mL]","AUC(0-t) [3, 7] [µg·h/mL]","AUC ratio (liposome:solution), kidney ([3]; mouse, in vivo, iv, 3 mg/kg)",also measured
"CC[C@H](C)CCCCC(=O)N[C@@H](CCN)C(=O)N[C@H](C(=O)N[C@@H](CCN)C(=O)N[C@H]1CCNC(=O)[C@H]([C@@H](C)O)NC(=O)[C@H](CCN)NC(=O)[C@H](CCN)NC(=O)[C@H](CC(C)C)NC(=O)[C@@H](Cc2ccccc2)NC(=O)[C@H](CCN)NC1=O)[C@@H](C)O [PB1, polymyxin B1] (X1-[Dab]T[Dab][Dab][Dab][dF]L[Dab][Dab]T; lactam 4-C)",–,–,–,–,–,–,–,"AUC ratio (liposome:solution), epithelial lining fluid ([1]; ELF, mice, IV 3 mg/kg): 6.21; AUC(0-t) ([1]; mouse, in vivo, iv, 3 mg/kg, ELF, mice, IV 3 mg/kg polymyxin liposome): 9.75 µg·h/mL; AUC(0-t) ([1]; mouse, in vivo, iv, 3 mg/kg, ELF, mice, IV 3 mg/kg polymyxin solution (USP)): 1.57 µg·h/mL; half-life ([2]; female, ND4 Swiss Webster, mouse, in vivo, 3 mg/kg, serum, mice, IV polymyxin B liposomes, one-compartment model, read-out: T1/2 (elimination half-life) (converted)): 36 min; AUC(0-t) ([2]; female, ND4 Swiss Webster, mouse, in vivo, iv, 3 mg/kg, serum, mice, IV polymyxin B liposomes approx. 3 mg/kg): 4.77 µg·h/mL; AUC(0-t) ([2]; female, ND4 Swiss Webster, mouse, in vivo, iv, 3 mg/kg, serum, mice, IV polymyxin B solution (USP) approx. 3 mg/kg): 2.76 µg·h/mL; total clearance ([2]; mice, IV aqueous solution approx. 3 mg/kg): 1.4±0.5 I/h/kg; total clearance ([2]; mice, IV liposomal formulation approx. 3 mg/kg): 0.6±0.3 I/h/kg; AUC(0-t) ([3]; mouse, in vivo, iv, 3 mg/kg, kidney, mice, IV 3 mg/kg polymyxin liposome, n = 24, read-out: AUC0-6 h, kidney): 28.4 µg·h/mL; AUC(0-t) ([3]; mouse, in vivo, iv, 3 mg/kg, kidney, mice, IV 3 mg/kg polymyxin solution (USP), n = 24, read-out: AUC0-6 h, kidney): 34.2 µg·h/mL; AUC ratio (liposome:solution), kidney ([3]; kidney, mice, IV 3 mg/kg): 0.83"
"CC[C@H](C)CCCCC(=O)N[C@@H](CCN)C(=O)N[C@H](C(=O)N[C@@H](CCN)C(=O)N[C@H]1CCNC(=O)[C@H]([C@@H](C)O)NC(=O)[C@H](CCN)NC(=O)[C@H](CCN)NC(=O)[C@H]([C@@H](C)CC)NC(=O)[C@@H](Cc2ccccc2)NC(=O)[C@H](CCN)NC1=O)[C@@H](C)O [ile-PB1, isoleucine polymyxin B1] (X1-[Dab]T[Dab][Dab][Dab][dF]I[Dab][Dab]T; lactam 4-C)",up to 4 h,4.55,25.2,17.4,4.98,4.16,0.84,–
"O=C([O-])/C=C\C(=O)[O-].[Na+].[Na+] [maleate, Sodium maleate dibasic salt]",–,–,–,–,–,–,–,elevation in the level of urinary megalin [4]: approximately 20 times the baseline measurement; time until urinary megalin levels reverted to baseline [4]: approximately 11 days; electron microscopic findings in kidney ([5]; two weeks after 400 mg/kg intraperitoneally): no significant changes; electron microscopic findings in kidney ([5]; within 3 h after 400 mg/kg intraperitoneally): morphological and ultrastructural changes in the proximal tubules

# Continued, in another order:
"time post-dose up to which the component could be quantified in ELF ([1]; mouse, in vivo, iv)","AUC ratio (liposome:solution), epithelial lining fluid ([1]; mouse, in vivo, iv, 3 mg/kg)","half-life [2, 6] [min]","T1/2 (elimination half-life) ([2]; mouse, in vivo, iv) [min]","AUC0-6 h, kidney ([3]; mouse, in vivo, iv, 3 mg/kg) [µg·h/mL]","AUC(0-t) [3, 7] [µg·h/mL]","AUC ratio (liposome:solution), kidney ([3]; mouse, in vivo, iv, 3 mg/kg)",Structure (SMILES),also measured
up to 2 h,11.10,26.4,12.6,12.24,9.44,0.77,"CC(C)CCCCC(=O)N[C@@H](CCN)C(=O)N[C@H](C(=O)N[C@@H](CCN)C(=O)N[C@H]1CCNC(=O)[C@H]([C@@H](C)O)NC(=O)[C@H](CCN)NC(=O)[C@H](CCN)NC(=O)[C@H](CC(C)C)NC(=O)[C@@H](Cc2ccccc2)NC(=O)[C@H](CCN)NC1=O)[C@@H](C)O [PB2, polymyxin B2] ({Heptanoyl(6-Me)}-[Dab]T[Dab][Dab][Dab][dF]L[Dab][Dab]T; lactam 4-C (inferred))","clearance [2, 6]: 0.308 L/h/kg; Cl (clearance) ([2]; mouse, in vivo, iv): 0.8999 L/h/kg; Vss (volume of distribution at steady state) ([2]; mouse, in vivo, iv): 0.27474 L/kg"
up to 2 h,4.92,18,16.8,–,–,0.37,"CCCCCCCC(=O)N[C@@H](CCN)C(=O)N[C@H](C(=O)N[C@@H](CCN)C(=O)N[C@H]1CCNC(=O)[C@H]([C@@H](C)O)NC(=O)[C@H](CCN)NC(=O)[C@H](CCN)NC(=O)[C@H](CC(C)C)NC(=O)[C@@H](Cc2ccccc2)NC(=O)[C@H](CCN)NC1=O)[C@@H](C)O [PB3, polymyxin B3] (Octanoyl-[Dab]T[Dab][Dab][Dab][dF]L[Dab][Dab]T; lactam 4-C)",–
